In patent US6107549A, “Genetically engineered plant resistance to thiazopyr and other pyridine herbicides” (Monsanto Company, priority 1999, dated 2000):

Legend:
[1] = tested on: tobacco calli; test: Herbicide toxicity to tobacco calli on selection media; type: cell-based; conditions: for callus survival: control calli, concentrations above 1 μM, after 3 weeks; for suitable selection concentration for RLE3-expressing transgenic tobacco calli: preliminary experiments
Source text: The experimental procedure compared the herbicide toxicity of the pyridines upon exposure to tobacco calli that were transformed with a plasmid DNA, pMON13765 (FIG. 8) containing the RLE3 gene, and tobacco calli controls transformed with isogenic plasmid DNA without the RLE3 gene. The vectors, which also encoded NPTII for kanamycin selection, were introduced via Agrobacterium transformation. Kanamycin resistant calli were cut into pieces of 3-5 mm diameter and transferred onto selection media (Murahige and Skoog basal salt mixture in 0.9% agar) containing 0.01, 0.1, 1.0, or 10.0 μM concentration of either thiazopyr or MON 14300 (1 mM stock solution in DMSO). Plates were placed in a lighted growth chamber maintained at 22° C. […] Most control calli were dead after 3 weeks at pyridine herbicide concentrations above 1 μM. […] Preliminary experiments identified 0.1 μM 14300 or thiazopyr as a suitable selection concentration for identifying transgenic tobacco calli that are expressing the RLE3 esterase. It is believed that any member of the pyridine herbicide family that is deactivated by an esterase, and any esterase gene that can hydrolyze the methylester group of a pyridine herbicide would be able to function in this selection system.

[2] = tested on: porcine liver esterase; test: Pyridine-esterase activity assay with porcine liver esterase; type: biochemical; conditions: for esterase activity against substrate: commercially available preparations of porcine liver esterase
Description: (§1) Esterase activity assays. Esterase activity was measured in vitro by conversion of either [^14 C]thiazopyr or [^14 C]MON 14300 to their corresponding monoacid. Pyridine-esterase activity was assayed during protein purification and from tissue extracts of transgenic plants. The homogenizing buffer for plant tissues consisted of 100 mM Tris pH 8.0, 1 mM EDTA, 1 mM DTT, and 10% glycerol in water. Plant tissues (1 g/ml buffer) including leaves, seeds, flowers, seedlings, etc. were homogenized in conical centrifuge tubes using a spinning pestle at 4° C. Following centrifugation (12,000× g), the supernatant (250 μl) was assayed immediately for esterase activity by incubation with [^14 C]thiazopyr or [^14 C]MON 14300 (4 μg) in 0.1 M Tris pH 8.0 buffer (50 μl) at 37° C. The reaction was sampled (100 μL) at various times (0.5 to 100 hr) to generate a kinetic profile of monoacid formation. The reaction was stopped by addition of 1% trifluoroacetic acid in acetonitrile (v/v, 150 μl). Following centrifugation (12,000× g for 3 min), the supernatant was analyzed by HPLC/RAD (radioactivity detection) to resolve the monoacid from the parent herbicide and other metabolites. Control reactions in the absence of the esterase recovered un-reacted thiazopyr or MON 14300 for the duration of experiments. Esterase activity was also assayed during protein purification following a similar procedure except a single time-point (1-2 hrs) of incubation was selected within the linear range of reaction. In vitro assays also employed three commonly used calorimetric (p-nitrophenyl butyrate) or fluorescent (4-methyl umbelliferyl butyrate and 5-bromo-4-chloro-3-indolylacetate) substrates. These substrates are useful in rapidly and qualitatively detecting general esterase activity.
Purification of pyridine-esterases from porcine and rabbit liver. Porcine and rabbit liver esterases, obtained commercially as (NH4)2 SO4 suspensions, were desalted using a disposable SEPHADEX™ G25 size exclusion column (Pharmacia Biotech). Proteins (1 to 10 mg) were initially separated on a strong anion exchange column (MONO Q™, Pharmacia Biotech) at 4° C. The column was linearly programmed in 30 minutes from 0 to 0.4 M KCl in 10 mM Tris buffer, pH 7.4 at a flow rate of 1 m/min. Subsequently, the column was programmed from 0.4 to 1.0 M KCl in 10 min. Effluent was monitored by UV (280 nm) and fractions were collected at 1 ml intervals. Effluent fractions were assayed for protein by Coomassie dye (Bio Rad Laboratory) and for pyridine-esterase activity. Protein purity was determined by SDS-PAGE on 10 to 15% gradient gels (Pharmacia Biotech) with visualization of proteins by silver staining.
Following anion exchange chromatography, fractions with the highest purity and activity were pooled. After desalting, the pooled fractions were further separated by isoelectric focusing (IEF) chromatography on a MONO P™ column (Pharmacia Biotech) at 4° C. IEF chromotography was conducted at different pH ranges (3-9, 4-7, 5.5-6.5 or 4.5-5.5) using appropriate combinations of POLYBUFFERS™ (Pharmacia Biotech) and a flow rate of […]. Effluent fractions from IEF chromatography were analyzed for protein and pyridine-esterase activity. The protein purity of the fractions was determined by SDS-PAGE and IEF-PAGE.

[3] = molecular target: T1, pyridine-esterase (Oryctolagus cuniculus, UniProt P12337, A196R/H30K); type: biochemical, rabbit; conditions: for hydrolysis by pyridine-esterase (substrate specificity): tobacco line #37437 extract, FIG. 4
T1 construct: made in house; host or cells: transgenic tobacco (Samson) and tomato (UC82B) plants, tissue extracts
T1 sequence (P12337 19-565 H30K/A196R): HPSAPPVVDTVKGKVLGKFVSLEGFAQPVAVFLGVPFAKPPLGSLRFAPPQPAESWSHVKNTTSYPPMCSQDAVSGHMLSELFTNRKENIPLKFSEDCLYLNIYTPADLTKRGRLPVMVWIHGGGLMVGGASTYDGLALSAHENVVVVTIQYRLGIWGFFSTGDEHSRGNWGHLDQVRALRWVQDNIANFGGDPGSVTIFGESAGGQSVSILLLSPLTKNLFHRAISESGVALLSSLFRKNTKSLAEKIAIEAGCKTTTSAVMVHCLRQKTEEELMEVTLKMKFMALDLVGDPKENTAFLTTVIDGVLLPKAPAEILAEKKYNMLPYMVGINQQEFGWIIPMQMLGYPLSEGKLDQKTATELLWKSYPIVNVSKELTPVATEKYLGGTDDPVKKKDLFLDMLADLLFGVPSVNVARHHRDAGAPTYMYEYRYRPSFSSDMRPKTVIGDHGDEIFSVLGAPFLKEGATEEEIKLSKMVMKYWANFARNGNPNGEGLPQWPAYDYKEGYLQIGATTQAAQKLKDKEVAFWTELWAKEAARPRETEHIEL
Description: as §1
Tissue extracts from 3 tobacco R1 seedlings were employed for further studies. Two of the lines (#37437 and #37432) expressed high levels of esterase (~0.5%) and one line (#37436) which expressed no pyridine-esterase was used as negative control. Tissue extracts were incubated with [^14 C]MON 14300 and formation of the monoacid monitored with time. […] In comparison, less that 2% monoacid was detected in line (#37436). […] First, pyridine-esterase was capable of driving the hydrolysis reaction to completion with no apparent product inhibition, and second, there was no endogenous esterase activity in tobacco which catalyzed MON 14300 hydrolysis.

[4] = tested on: rabbit liver esterase; test: Pyridine-esterase activity assay with rabbit liver esterase; type: biochemical; conditions: commercially available rabbit liver esterase
Description: Esterase activity assays. Esterase activity was measured in vitro by conversion of either [^14 C]thiazopyr or [^14 C]MON 14300 to their corresponding monoacid. Pyridine-esterase activity was assayed during protein purification and from tissue extracts of transgenic plants. The homogenizing buffer for plant tissues consisted of 100 mM Tris pH 8.0, 1 mM EDTA, 1 mM DTT, and 10% glycerol in water. Plant tissues (1 g/ml buffer) including leaves, seeds, flowers, seedlings, etc. were homogenized in conical centrifuge tubes using a spinning pestle at 4° C. […] Following centrifugation (12,000× g for 3 min), the supernatant was analyzed by HPLC/RAD (radioactivity detection) to resolve the monoacid from the parent herbicide and other metabolites. […]
Purification of pyridine-esterases from porcine and rabbit liver. […] Effluent was monitored by UV (280 nm) and fractions were collected at 1 ml intervals. […] Protein purity was determined by SDS-PAGE on 10 to 15% gradient gels (Pharmacia Biotech) with visualization of proteins by silver staining.
Following anion exchange chromatography, fractions with the highest purity and activity were pooled. […] Effluent fractions from IEF chromatography were analyzed for protein and pyridine-esterase activity. The protein purity of the fractions was determined by SDS-PAGE and IEF-PAGE.

[5] = control vector calli, concentrations above 0.1 μM, after 2-3 weeks
[6] = purified porcine esterase against thiazopyr, double reciprocal plot

SMILES	callus growth ([1]; RLE3 calli, 1.0 to 10 μM)	callus growth ([1]; calli expressing RLE3, 0.1 μM)	callus survival [1]	callus growth [1, 5]	suitable selection concentration for RLE3-expressing transgenic tobacco calli [1]	rate of hydrolysis compared with thiazopyr ([2]; commercial porcine liver esterase)	esterase activity against substrate [2]	hydrolysis to monoacid metabolite ([3]; expressing lines #37432 and #37437, FIG. 3)	hydrolysis by pyridine-esterase (substrate specificity) [3]	monoacid formed ([3]; tobacco, seedling tissue extract, 100 h)	esterase activity against substrate [4]	Km [2, 6]	Vmax [2, 6]
COC(=O)c1c(C(F)F)nc(C(F)(F)F)c(C(=O)n2cccn2)c1CC(C)C [MON 14300]	stunting with reduced shoot development	vigorous growth and shoot development	dead	little growth	0.1 µM	hydrolyzed faster than thiazopyr	demonstrated activity	efficient hydrolysis	clearly hydrolyzed	90%	active		
COC(=O)c1c(C(F)F)nc(C(F)(F)F)c(C2=NCCS2)c1CC(C)C [thiazopyr]	stunting with reduced shoot development	vigorous growth and shoot development	dead	little growth	0.1 µM		demonstrated activity		clearly hydrolyzed		active	320 µM	10.8 nmol/min/mg
